In patent EP4703359A1 (Shanghai Simr Biotechnology Co., Ltd., priority 2023, dated 2024):
pKi: −log10 of the molar value.

Columns and labels:
α2-GABAA receptor [1] = target: T1, α2-GABAA receptor (Homo sapiens, UniProt P18507+P47869); assay: Radioactive ligand (3H-flunitrazepam) competitive binding assay, BZD site of membrane proteins of α2-GABAAR-HEK293 cells; conditions: competition with 1 nM 3H-flunitrazepam; HEK293 membranes expressing α2, β3, γ2 subunits; Ki calculated from IC50; read-out: α2 Ki
T1 construct: expressed in transfected cells
Description: The α subunit, β subunit, and γ subunit are indispensable for forming a fully functional GABAA receptor. In this example, HEK293 cells stably expressing α2-GABAA receptors (α2-GABAAR) were constructed and screened respectively via liposome transfection (Felgner, P.L., et al. Proceedings of the National Academy of Sciences, 1987, 84: 7413-7417). The α2-GABAAR-HEK293 cell model co-expresses the α2 subunit (protein sequence referenced under GenBank accession number: NM_000807.4), β3 subunit (protein sequence referenced under GenBank accession number: NM_000814.5), and γ2 subunit (protein sequence referenced under GenBank accession number: NM_000816.3).
The above cell lines were subcultured. α2-GABAAR-HEK293 cells were amplified for testing the affinity of compounds to the benzodiazepine (BZD) site of GABAA receptors. Some of the α2-GABAAR-HEK293 cells in suspension during subculturing were plated on glass slides pre-treated with Poly-D-Lysine for electrophysiological testing (method reference: Patent CN 107344936 A, paragraph 0586).
The affinity of the compound for the α2-GABAA receptor was determined by competing with ^3H-flunitrazepam (isotope ^3H-labeled flunitrazepam) for binding to the BZD site of membrane proteins in HEK293 cells stably expressing human α2-GABAAR.
Membrane preparation: Cells were suspended in 50 mM Tris-HCl buffer (pH=7.4), homogenized on ice using a homogenizer for 20 seconds with 10 repetitions, and centrifuged at 4°C, 1000g for 10 minutes. The supernatant was collected, and the above steps were repeated. The supernatant was centrifuged at 4°C (33,800 × g; Thermo, rotor: A27-8x50) for 60 minutes, and the pellet was resuspended in Tris buffer (50 mM Tris-HCl, 10 mM MgCl2, 0.5 mM EDTA, 10% glycerol). The protein concentration was determined using the bicinchoninic acid (BCA) protein assay based on the copper ion reduction method (BCA kit purchased from Pierce (Annoron)). Aliquots of 1 mL were prepared and stored at -80°C.
Radioactive ligand competitive binding assay: This assay was conducted in a 200 µL system (96-well plate), containing 100 µL of cell membrane. The concentration of ^3H-flunitrazepam was 1 nM, and the concentration of the test compound ranged from […]. Flumazenil was used as a control. The low signal control well (Low Control, LC) was added with 1 µL of 2 mM flumazenil (final concentration 10 µM), while the high signal control well (High Control, HC) was added with 1 µL of dimethyl sulfoxide. The final concentration of the target membrane protein was 5 µg/well. All test compound stock solutions were prepared as 10 mM solutions in dimethyl sulfoxide. The working concentration of the samples was prepared by diluting all samples to 0.2 mM with dimethyl sulfoxide, followed by a 4-fold serial dilution to obtain a total of 8 concentration gradients. The 96-well plate was sealed with sealing film and then incubated on a shaker at room temperature for 1 hour. The GF/C filter plate was also soaked with a soaking buffer (0.3% PEI (polyethyleneimine, purchased from: Sigma-Aldrich, model: P314), stored at 4°C) for at least 0.5 hours. After the incubation was completed, the mixture was collected onto a GF/C filter plate using a cell harvester and washed four times with wash buffer (50 mM Tris-HCl, pH 7.4, stored at 4°C). After drying in a 50°C oven for 1 hour, the dried GF/C filter plate was sealed at the bottom with a film. The residual radioactivity on the filter membrane was detected using liquid scintillation counting. Each well was filled with 50 µL of scintillation fluid and sealed. Readings were taken using a Microbeta^2 (microplate counter, purchased from PerkinElmer, model: CNLL0153). The inhibitory activity of the test sample on the binding of ^3H-flunitrazepam to GABAA receptor membrane protein was calculated. […]

α2-GABAA receptor [2] = target: T1, α2-GABAA receptor; assay: Whole-cell patch-clamp electrophysiology, positive allosteric modulatory activity in α2-GABAAR-HEK293 cells; assay type: cell-based; conditions: compound 100 nM; GABA 0.10 to 0.11 µM (approximately EC7-8); normalized to reference compound CVL-865 (= 100%); read-out: α2-GABAAR Positive allosteric modulatory activity
In short: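 HEK293 cells stably co-expressing α2β3γ2 GABAA receptor, whole-cell patch clamp at -60 mV. Compounds at 100 nM final applied with GABA 0.10–0.11 µM (~EC7-8) after GABA-only current stabilized. […]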

| pKi (α2-GABAA receptor [1]) | Emax at 0.1 µM (α2-GABAA receptor [2]) | Structure (SMILES) |
| --- | --- | --- |
| 8.30 | 71% | CCCNC(=O)c1nc2c(-c3cc4c(cc3OC)N(C)C(=O)CO4)c(F)ccn2c1N [Example 123, 3-Amino-7-fluoro-8-(6-methoxy-4-methyl-3-oxo-3,4-dihydro-2H-benzo[b][1,4]oxazin-7-yl)-N-propylimidazo[1,2-a]pyridine-2-carboxamide] |
| 7.06 | 35% | CCCNC(=O)c1nc2c(OCc3c(F)cccc3OC)cccn2c1N [Example 151, 3-Amino-8-((2-fluoro-6-methoxybenzyl)oxy)-N-propylimidazo[1,2-a]pyridine-2-carboxamide] |
| 8.23 | 164% | CCCNC(=O)c1nc2c(-c3cc(C)cnc3OC)cccn2c1N [Example 83, 3-Amino-8-(2-methoxy-5-methylpyridin-3-yl)-N-propylimidazo[1,2-a]pyridine-2-carboxamide] |
| 8.30 | 95% | CCCNC(=O)c1nc2c(Oc3cc(F)ccc3OC)cccn2c1N [Example 144, 3-Amino-8-(5-fluoro-2-methoxyphenoxy)-N-propylimidazo[1,2-a]pyridine-2-carboxamide] |
| 7.05 | 44% | CCCNC(=O)c1nc2c(N3CCOCC3C)cccn2c1N (stereo not shown) [Example 149, 3-Amino-8-(3-methylmorpholino)-N-propylimidazo[1,2-a]pyridine-2-carboxamide] |
| 7.65 | 93% | CCCNC(=O)c1nc2c(-c3cccnc3OC)cccn2c1N [Example 82, 3-Amino-8-(2-methoxypyridin-3-yl)-N-propylimidazo[1,2-a]pyridine-2-carboxamide] |
| 7.87 | 97% | [2H]c1ccc(F)c(-c2cccn3c(N)c(C(=O)NCCC)nc23)c1OC [Example 137, 3-Amino-8-(2-fluoro-6-methoxyphenyl-5-d)-N-propylimidazo[1,2-a]pyridine-2-carboxamide] |
| 7.50 | 74% | CCCNC(=O)c1nc2c(-c3c(F)ccc(C)c3OC)cccn2c1N [Example 78, 3-Amino-8-(6-fluoro-2-methoxy-3-methylphenyl)-N-propylimidazo[1,2-a]pyridine-2-carboxamide] |
| 7.95 | 77% | [2H]C([2H])([2H])Oc1cccc(F)c1-c1cccn2c(N)c(C(=O)NCCC)nc12 [Example 138, 3-Amino-8-(2-fluoro-6-(methoxy-d3)phenyl)-N-propylimidazo[1,2-a]pyridine-2-carboxamide] |
| 7.40 | 71% | CCCNC(=O)c1nc2c(-c3c(F)ccc(F)c3OC)cccn2c1N [Example 79, 3-Amino-8-(3,6-difluoro-2-methoxyphenyl)-N-propylimidazo[1,2-a]pyridine-2-carboxamide] |

More lines, now with the values behind:

| Structure (SMILES) | pKi (α2-GABAA receptor [1]) | Emax at 0.1 µM (α2-GABAA receptor [2]) |
| --- | --- | --- |
| CCCNC(=O)c1nc2c(-c3cccc(C)c3F)cccn2c1N [Example 64, 3-Amino-8-(2-fluoro-3-methylphenyl)-N-propylimidazo[1,2-a]pyridine-2-carboxamide] | 8.47 | 93% |
| COc1cccc(F)c1-c1cccn2c(N)c(C(=O)Nc3cc(C)on3)nc12 [Example 16, 3-Amino-8-(2-fluoro-6-methoxyphenyl)-N-(5-methylisoxazol-3-yl)imidazo[1,2-a]pyridine-2-carboxamide] | 7.71 | 200% |
| COc1cccc(F)c1-c1cccn2c(N)c(C(=O)Nc3ccccc3)nc12 [Example 13, 3-Amino-8-(2-fluoro-6-methoxyphenyl)-N-phenylimidazo[1,2-a]pyridine-2-carboxamide] | 7.36 | 107% |
| COc1cccc(F)c1-c1cccn2c(N)c(C(=O)NC3CC(F)(F)C3)nc12 [Example 9, 3-Amino-N-(3,3-difluorocyclobutyl)-8-(2-fluoro-6-methoxyphenyl)imidazo[1,2-a]pyridine-2-carboxamide] | 7.03 | 52% |
| CCCNC(=O)c1nc2c(-c3cccc(CC#N)c3)cccn2c1N [Example 36, 3-amino-8-(3-(cyanomethyl)phenyl)-N-propylimidazo[1,2-a]pyridine-2-carboxamide] | 7.67 | 181% |
| CCCNC(=O)c1nc2c(-c3c(OC)ccc(C)c3F)cccn2c1N [Example 77, 3-Amino-8-(2-fluoro-6-methoxy-3-methylphenyl)-N-propylimidazo[1,2-a]pyridine-2-carboxamide] | 8.29 | 126% |
| CCCNC(=O)c1nc2c(-c3c(OC)ccc(F)c3F)cccn2c1N [Example 76, 3-Amino-8-(2,3-difluoro-6-methoxyphenyl)-N-propylimidazo[1,2-a]pyridine-2-carboxamide] | 7.89 | 101% |
| CCCNC(=O)c1nc2c(-c3cc(C)ccc3OC)cccn2c1N [Example 49, 3-Amino-8-(2-methoxy-5-methylphenyl)-N-propylimidazo[1,2-a]pyridine-2-carboxamide] | 7.72 | 156% |
| CCCNC(=O)c1nc2c(-c3cc(Cl)ccc3OC)cccn2c1N [Example 62, 3-Amino-8-(5-chloro-2-methoxyphenyl)-N-propylimidazo[1,2-a]pyridine-2-carboxamide] | 8.28 | 192% |
| CCCCNC(=O)c1nc2c(-c3c(F)cccc3OC)cccn2c1N [Example 26, 3-Amino-8-(2-fluoro-6-methoxyphenyl)-N-butylimidazo[1,2-a]pyridine-2-carboxamide] | 7.75 | 97% |
| COc1cccc(F)c1-c1cccn2c(N)c(C(=O)NC3CCCC3)nc12 [Example 12, 3-Amino-N-cyclopentyl-8-(2-fluoro-6-methoxyphenyl)imidazo[1,2-a]pyridine-2-carboxamide] | 7.47 | 32% |
| COc1cccc(F)c1-c1cccn2c(N)c(C(=O)NCc3ccccc3)nc12 [Example 19, 3-Amino-N-benzyl-8-(2-fluoro-6-methoxyphenyl)imidazo[1,2-a]pyridine-2-carboxamide] | 7.86 | 65% |
| COc1cccc(F)c1-c1cccn2c(N)c(C(=O)NCC3CC3)nc12 [Example 6, 3-Amino-N-(cyclopropylmethyl)-8-(2-fluoro-6-methoxyphenyl)imidazo[1,2-a]pyridine-2-carboxamide] | 7.62 | 57% |
| CCCNC(=O)c1nc2c(-c3cc(C(F)F)ccc3OC)cccn2c1N [Example 67, 3-Amino-8-(5-(difluoromethyl)-2-methoxyphenyl)-N-propylimidazo[1,2-a]pyridine-2-carboxamide] | 7.82 | 138% |
| CCCNC(=O)c1nc2c(-c3cccc(C#N)c3)cccn2c1N [Example 35, 3-Amino-8-(3-cyanophenyl)-N-propylimidazo[1,2-a]pyridine-2-carboxamide] | 7.88 | 108% |
| CCCNC(=O)c1nc2c(-c3cc(F)cc(C#N)c3)cccn2c1N [Example 55, 3-Amino-8-(3-cyano-5-fluorophenyl)-N-propylimidazo[1,2-a]pyridine-2-carboxamide] | 7.56 | 89% |
